System: participants with SSc-RP
Assay: Scleroderma Health Assessment Questionnaire (SHAQ), Phase 2a study Part A
Format: in vivo, human
Conditions: for % change in Pain (SHAQ): mITT
Experimental: Part A—double-blind, placebo-controlled, parallel-group, dose selection, will assess the safety and efficacy of two doses of cilnidipine (10 mg and 20 mg), alone and in combination with tadalafil. A total of 36 participants will be randomized to one of six prespecified treatment arms. Refer to FIG. 1 for treatment arms in Part A of the study. Dosing last for 12 (±2) days in which participants will self-administer daily doses of assigned treatment in the morning. Each participant will take one capsule and one tablet to blind the active therapy being received.
The standard, validated, patient reported outcome measures tool for SSc patients, the SHAQ, will be collected at the time points specified in the study schedules (FIG. 2 and FIGS. 3A and 3B) to assess the participant's quality of life. The SHAQ includes a Raynaud's VAS that will also be reported separately.
Results: Patients in the study were administered the Scleroderma Health Assessment Questionnaire (SHAQ) at the time of study entry and during clinic visits following the treatment period. The study is a two-part, parallel arm design, prospective, double-blind, randomized study conducted in Australia (Flinders Medical Center). 27 patients were randomized into the first phase of the study, following which a DSMB meeting was held, which reviewed data on the primary study endpoint and key Raynaud's secondary endpoints. Data on the SHAQ was not available for the DSMB to review. The mITT population, in which any data was available post treatment was 24 patients was the analysis population for this first part of the study. The second part (i.e., part B) of the study will randomize 36 patients in a double blind, randomized, prospective, placebo controlled, crossover study. In the first part (i.e., Part A) of the study for which data is presented, patients were randomized into 6 groups, cilnidipine at two doses (10 and 20 mg) alone and in combination with tadalafil 5 mg, tadalafil 5 mg alone, and placebo. […] The DSMB recommended that the study proceed into its double blind prospective cross overpowered second phase and compare cilnidipine 20 mg alone to placebo.

[1] = Pooled Cilnidipine 10 mg or 20 mg (N = 7)
[2] = Pooled Cilnidipine 10 mg or 20 mg (n = 6)
[3] = cilnidipine 10 mg and/or tadalafil 5 mg arms

## COCCOC(=O)C1=C(C)NC(C)=C(C(=O)OC/C=C/c2ccccc2)C1c1cccc([N+](=O)[O-])c1 (stereo not drawn) [Cilnidipine, cilnidipine]
Cilnidipine 20 mg (n = 3)
  % change VAS Raynauds: −49%
  % change in Alternative Disability Index: −42%
  % change in Standard Disability Index: −50%
  % change overall SSc Disease Severity: −63% (i.e., improvement)
  % improvement in Breathing (median): 67% (median)
  % improvement in VAS Digital Ulcers: 35%
  Alternative disability index, % improvement: 42% improvement
  Standard disability Index, % improvement: 50% improvement
  VAS - Breathing problems, % improvement: 75% improvement*
  VAS - Raynaud's, % improvement: 55% improvement
  VAS Overall Disease Severity, % improvement: 63% improvement
  % change in Pain (SHAQ): −53%
Cilnidipine 20 mg (n = 3), baseline 2.17 on a 0-10 VAS
  VAS- PAIN, % improvement: 53% improvement*
[1]
  SHAQ overall disease severity, Change from Baseline, Max: 0.20
  SHAQ overall disease severity, Change from Baseline, Mean (SD): −1.214 (0.7946)
  SHAQ overall disease severity, Change from Baseline, Median: −1.500
  SHAQ overall disease severity, Change from Baseline, Min: −1.90
  SHAQ overall disease severity, Change from Baseline, Q1: −1.800
  SHAQ overall disease severity, Change from Baseline, Q3: −0.400
  SHAQ overall disease severity, In-Clinic Visit (Day 12), Max: 5.20
  SHAQ overall disease severity, In-Clinic Visit (Day 12), Mean (SD): 1.486 (1.7743)
  SHAQ overall disease severity, In-Clinic Visit (Day 12), Median: 1.200
  SHAQ overall disease severity, In-Clinic Visit (Day 12), Min: 0.00
  SHAQ overall disease severity, In-Clinic Visit (Day 12), Q1: 0.200
  SHAQ overall disease severity, In-Clinic Visit (Day 12), Q3: 1.900
[2]
  SHAQ overall disease severity, Percent Change from Baseline, Max: −26.8%
  SHAQ overall disease severity, Percent Change from Baseline, Mean (SD): −59.80 (25.642) %
  SHAQ overall disease severity, Percent Change from Baseline, Median: −55.86%
  SHAQ overall disease severity, Percent Change from Baseline, Min: −100.0%
  SHAQ overall disease severity, Percent Change from Baseline, Q1: −76.19%
  SHAQ overall disease severity, Percent Change from Baseline, Q3: −44.12%
Pooled Cilnidipine (n = 7)
  % change VAS Raynauds: −17%
  % change in Alternative Disability Index: −13%
  % change in Standard Disability Index: −25%
  % change overall SSc Disease Severity: −60% (i.e., improvement)
  % improvement in Breathing (median): 41% (median)
  % improvement in VAS Digital Ulcers: 19%
  % change in Pain (SHAQ): −31%
Pooled cilnidipine
  % from baseline, Intestinal Problems, mean: −32.4%
  % from baseline, Intestinal Problems, median: −44.1%
  % from baseline, VAS Breathing, mean: −8.2%
  % from baseline, VAS Breathing, median: −41.3%
  % from baseline, VAS Finger Ulcers, mean: −17.1%
  % from baseline, VAS Finger Ulcers, median: −50.9%
  % from baseline, VAS Overall Disease Severity, mean: −59.8%
  % from baseline, VAS Overall Disease Severity, median: −55.9%
  % from baseline, VAS Pain, mean: −31.2%
  % from baseline, VAS Pain, median: −45%
  % from baseline, VAS Raynaud's, mean: −18.6%
  % from baseline, VAS Raynaud's, median: −38.7%
  % from baseline, alternative disability, mean: −12.9%
  % from baseline, alternative disability, median: −22.2%
  % from baseline, standard disability, mean: −25%
  % from baseline, standard disability, median: −16.7%
[3]
  SHAQ Finger Ulcers, Change from Baseline, Max: 0.00
  SHAQ Finger Ulcers, Change from Baseline, Mean (SD): −0.425 (0.5058)
  SHAQ Finger Ulcers, Change from Baseline, Median: −0.350
  SHAQ Finger Ulcers, Change from Baseline, Min: −1.00
  SHAQ Finger Ulcers, Change from Baseline, Q1: −0.850
  SHAQ Finger Ulcers, Change from Baseline, Q3: 0.000
  SHAQ Finger Ulcers, In Clinic Visit (Day 12), Max: 1.10
  SHAQ Finger Ulcers, In Clinic Visit (Day 12), Mean (SD): 0.275 (0.5500)
  SHAQ Finger Ulcers, In Clinic Visit (Day 12), Median: 0.000
  SHAQ Finger Ulcers, In Clinic Visit (Day 12), Min: 0.00
  SHAQ Finger Ulcers, In Clinic Visit (Day 12), Q1: 0.000
  SHAQ Finger Ulcers, In Clinic Visit (Day 12), Q3: 0.550
  SHAQ Finger Ulcers, Percent Change from Baseline, Max: −38.9%
  SHAQ Finger Ulcers, Percent Change from Baseline, Mean (SD): −69.44 (43.212) %
  SHAQ Finger Ulcers, Percent Change from Baseline, Median: −69.44%
  SHAQ Finger Ulcers, Percent Change from Baseline, Min: −100.0%
  SHAQ Finger Ulcers, Percent Change from Baseline, Q1: −100.00%
  SHAQ Finger Ulcers, Percent Change from Baseline, Q3: −38.89%
  SHAQ Overall Change in Severity, Change from Baseline, Max: 0.20
  SHAQ Overall Change in Severity, Change from Baseline, Mean (SD): −0.900 (0.9695)
  SHAQ Overall Change in Severity, Change from Baseline, Median: −0.950
  SHAQ Overall Change in Severity, Change from Baseline, Min: −1.90
  SHAQ Overall Change in Severity, Change from Baseline, Q1: −1.700
  SHAQ Overall Change in Severity, Change from Baseline, Q3: −0.100
  SHAQ Overall Change in Severity, In Clinic Visit (Day 12), Max: 5.20
  SHAQ Overall Change in Severity, In Clinic Visit (Day 12), Mean (SD): 1.825 (2.4061)
  SHAQ Overall Change in Severity, In Clinic Visit (Day 12), Median: 1.050
  SHAQ Overall Change in Severity, In Clinic Visit (Day 12), Min: 0.00
  SHAQ Overall Change in Severity, In Clinic Visit (Day 12), Q1: 0.100
  SHAQ Overall Change in Severity, In Clinic Visit (Day 12), Q3: 3.550

Reference: US20240148709A1, “METHODS OF TREATING EYE PAIN AND EYE DISORDERS” (Aisa Pharma, Inc., priority 2022, published 2024)
